Assays:
[1] = system: (CCUG)6 / (CCUG)8; test: Ligand-RNA binding affinity, CCUG repeats; details: (CCUG)8
Excerpt: Off target activity is a concern for any therapeutic agent but especially one designed to cleave RNA. To test the selectivity of agents 6 and 9, the screening gel assay described above was applied to other RNA targets, specifically cTNT32, (CCUG)8 (SEQ ID NO: 11), and HIV-1 frameshift site RNA (HIV FS) (FIG. 5a). Both 6 and 9 were quite selective. […] Thus, both similarly adopt stem-loop structures with internal loops within the stem, although obviously of different sequences. Differences between 6 and 9 were observed (FIG. 5) with the former cleaving (CCUG)8 (SEQ ID NO: 11), the toxic RNA involved in myotonic dystrophy type 2 (DM2). […] The ability to process the RNA directly parallels the corresponding ligand-RNA binding affinities. Thus, 1, which contains the acridine-triazine core of agent 6, complexes the (CCUG)6 (SEQ ID NO: 12) and (CUG)n sequences.

[2] = system: (CUG)16; test: (CUG)16 cleavage screening gel assay; format: biochemical; details: ligand 100 μM, (CUG)16 100 nM, 12 h, pH 7.4, 37° C., EtBr stain
Description: FIG. 2. Cleavage screening gel. (CUG)16 (SEQ ID NO: 1) (100 nM) was incubated with ligands (100 μM) and (CUG)16 (SEQ ID NO: 1) (100 nM), 12 h, 37° C. The reaction mixture was loaded onto a 20% denaturing PAGE gel and RNA was detected by post-staining with EtBr.
The potential cleavage activity of 4-9 was screened using a simple gel shift assay with (CUG)16 (SEQ ID NO: 1). To screen the agents, each agent was incubated for 12 h with unlabeled (CUG)16 (SEQ ID NO: 1) at a final concentration of 100 μM at pH 7.4. The mixture was separated on an RNA denaturing gel and stained with EtBr (FIG. 2). No loss of (CUG)16 (SEQ ID NO: 1) intensity was observed upon treatment with 2, 7, or tris(2-aminoethyl)amine (10).
RNA was fast folded at 95° C. for 5 min, followed by placing in ice for 10 min. RNA with a final concentration of 100 nM was incubated with cleaving agents 100 μM (in screening assays) and with ligand 9 at different concentrations (5, 10, 50, 100 μM). The cleaving buffer was 50 mM Tris buffer (pH 7.4) containing 150 mM NaCl and 2 mM MgCl2. The final volume of the reaction mixture was 10 μL. The reaction was quenched by adding 8 μL of 8 M urea and 2 μL of RNA loading dye followed by heating at 95° C. for 5 min. The mixture was separated on a 20% RNA denaturing gel. For non-labeled RNA, the gel was stained with EtBr and observed under UV. […]

[3] = molecular target: MBNL1-CUGexp complex; details: previously reported; cited from earlier work
[4] = system: insulin receptor (IR) minigene splicing; details: DM1 model cell cultures; cited from earlier work
[5] = system: cTNT minigene splicing; details: DM1 model cell cultures; cited from earlier work
[6] = system: MBNL1-CUGexp nuclear foci in HeLa cells transfected with GFP-DT960; details: DM1 model cell cultures; cited from earlier work
[7] = system: (CTG.CAG)74; test: In vitro transcription of (CTG.CAG)74; format: biochemical
Description: FIG. 8A-B. In vitro transcription of (CTG.CAG)74 (SEQ ID NOS 3-4, respectively). Ligands at different concentrations were incubated with 15 ng linearized plasmids in T7 RNA polymerse mixture at 37° C. After 2 h, the reaction mixture was on a 8% denaturing gel. (a) Transcription gels of ligands at different concentrations (“(CUG)74” is disclosed as SEQ ID NO: 22). (b) Plot of the percentage of transcription inhibition versus ligand concentrations. The error bars represent standard errors of mean of three independent experiments. Untreated at 100 μM is at 0%; ligand 2 at 100 μM is at ˜10%; ligand 7 at 100 μM is at ˜35%; ligand 6 at 100 μM is at ˜80%; ligand 9 at 100 μM is at ˜96%; and ligand 5 at 100 μM is at ˜99%.
(SEQ ID NOS 3-4, respectively) transcription by 5, 6, and 9 in vitro. […] Nonetheless, the additional ammonium groups in these agents might potentially increase their affinity for both CTG DNA and CUG RNA so we returned to examine the potential for inhibition of CTG^exp transcription. The in vitro (CTG.CAG)74 (SEQ ID NOS 3-4, respectively) transcription assays utilized a T7 promoter located in the upstream region of the repeats.
(SEQ ID NOS 3-4, respectively). T7 RNA polymerase-mediated transcription reactions were incubated at 37° C. for 2 h. A 10 μL mixture contained 15 ng of linearized plasmid (CTG)74 (SEQ ID NO: 3) or control plasmid templates, 0.5 mM each rATP, rCTP, rGTP, and rUTP and 0.5 U T7 polymerase (Biolab) in 1×T7 transcription buffer (80 mM Tris pH 8.3, 10 mM MgCl2, 2 mM spermine, 0.1% Triton-X, 10 mM NaCl). Ligand was added with the final concentrations of 0, 1, 10, 50, and 100 μM prior to incubation. Reactions were quenched by adding 8 μL of 8 M Urea and 2 μL of denaturing dye (95% formamide, 5 mM EDTA, 0.025% each xylene cyanol and bromophenol blue) and heating to 95° C. for 5 min. Of this solution, 15 μL was run on a 8% denaturing polyacrylamide gel in 0.5×TBE and stained with EtBr. Bands were quantified using the ImageJ (NIH). The intensity of (CUG)74 (SEQ ID NO: 22) band (ca. 260 nt) was normalized to that from the untreated transcription reaction. […]

[8] = cited from earlier work

For `N=C(NCCCCNc1nc(N)nc(N)n1)c1ccc(C(=N)NCCCCNc2nc(N)nc(N)n2)cc1` [Ligand 2], the “affinity toward (CCUG)8” value [1] is given as “no affinity”, the “loss of (CUG)16 intensity (RNA cleavage)” value [2] is given as “No loss” and the “KI, inhibition of MBNL binding” value [3] is given as “low micromolar”. For the same compound, the “rescue of splicing defect of IR minigene (earlier work)” value [4] was “partially rescued”, the “rescue of splicing defect of cTNT minigene (earlier work)” value [5] was “partially rescued” and the “dissolution of MBNL1-CUGexp nuclear foci (earlier work)” value [6] was “dissolved the MBNL1-CUG^exp nuclear foci”. The “transcription inhibition of (CTG.CAG)74 at 100 μM” value ([7]; 100 μM, 2 h, 37° C., T7 RNA polymerase) was ~10%, the “inhibition of (CTG.CAG)74 transcription (qualitative)” value ([7]; 1-100 μM) was “negligible effects” and the “water solubility in comparison to 1” value [8] was “higher water solubility”.

— patent US9376421B2, “Compounds and methods for myotonic dystrophy therapy” (The Board of Trustees of the University of Illinois, priority 2014, dated 2016)
